Laboratory results from patent US20230416751A1, “MATERIALS AND METHODS FOR TREATING CORNEAL DYSFUNCTION” (UNIVERSITY OF MIAMI, priority 2020, published 2023).

Assays:
[1] = test system: IL-1β; assay: IL-1β ELISA in human corneal endothelial grafts exposed to TNF-α and IFN-γ; format: cell-based; conditions: Ac-YVAD-cmk 30 ng/ml, TNF-α 100 ng/ml + IFN-γ 100 ng/ml, 48 hours; vs exposed grafts
Experimental: (§1) Endothelial grafts were isolated from corneal tissue grafts stored in Optisol GS (Bausch & Lomb; Rochester, New York, USA) and transferred to 24-well plates in DMEM/F12 medium (Gibco, Invitrogen Thermo Fisher, Carlsbad, CA, USA) supplemented with 5% fetal bovine serum (Gibco, Invitrogen Thermo Fisher, Carlsbad, CA, USA) and incubated at 37° C. for 48 hours to stabilize the cells following hypothermic storage. Medium was replaced and endothelial grafts were treated with TNF-α (100 ng/ml, R&D Systems, Minneapolis, MN, USA) and IFN-γ (100 ng/ml, Systems, Minneapolis, MN, USA)^34 and were incubated at 37° C. for 48 hours. Caspase-1 inhibitor, Ac-YVAD-cmk (30 ng/ml, InvivoGen, San Diego, CA, USA) was used to inhibit the inflammasome in CEC.
(§2) To study the expression of inflammasome signaling proteins in endothelial grafts, cells were treated with TNF-α and IFN-γ for 48 hours. Treated endothelial grafts were placed on […] of lysis buffer with protease inhibitor cocktail (Sigma) and Caspase-1 and […] levels were measure by SimpleStep ELISA™ kit (Abcam; Cambridge, UK) according to the manufacturer's instructions. Caspase-1 and IL-1β protein levels were determined by measuring the fluorescence intensity using a microplate reader (SpectraMax iD3, Molecular Device, San Jose, CA, USA) with excitation and emission wavelengths set at 485 and 535 nm, respectively. […]

[2] = test system: human CEC; assay: Lactate dehydrogenase (LDH) release assay in corneal endothelial grafts exposed to TNF-α and IFN-γ; format: cell-based; conditions: supernatant of grafts exposed to TNF-α and IFN-γ, Ac-YVAD-cmk 30 ng/ml, 48 hours; p<0.05
Experimental: as §1
Cytotoxicity of CEC after TNF-α, IFN-γ treatment was assessed by LDH release assay. LDH release assay was measure using a CytoTox 96® Non-Radioactive Cytotoxicity Assay kit (Promega, Madison, WI, USA) performed according to the manufacturer's instructions as described in^35. The absorbance was measured using a microplate reader (SpectraMax iD3, Molecular Device, San Jose, CA, USA) with excitation and emission wavelengths set at 490 nm.

[3] = test system: human CEC; assay: Intracellular ROS detection (DCF-DA) in corneal endothelial grafts exposed to TNF-α and IFN-γ; format: cell-based; conditions: Ac-YVAD-cmk 30 ng/ml, 48 hours, p<0.001
Experimental: as §1
Measurement of intracellular ROS levels was performed using a 2,7-dichlorofluorescein diacetate (DCF-DA) Cellular Reactive Oxygen Species Detection Assay Kit (Abcam, Cambridge, UK) according to the manufacturer's instructions as described in^36. Endothelial grafts were incubated with 10 μM DCF-DA at 37° C. for 45 min. Then, ROS level was determined by measuring the fluorescence intensity using a microplate reader (SpectraMax iD3, Molecular Device, San Jose, CA, USA) with excitation and emission wavelengths set at 485 and 535 nm, respectively. Tert-butyl hydrogen peroxide (TBHP) was used as the positive control. […]

[4] = test system: caspase-1; assay: siRNA inflammasome inhibitor in vitro assay: caspase-1 SimpleStep ELISA in HCEC-B4G12 cells; format: cell-based, human; conditions: HCEC-B4G12, YVAD 30 ng/ml, TNFα and INFγ, 72 hours; vs positive control cells treated only with TNFα and INFγ
Experimental: HCEC-B4G12 (Human Corneal Endothelial Cell Line) cells were obtained from Leibniz Institute DSMZ and maintained in Endothelial SFM supplemented with FGF 10 ng/ml in a humidified incubator under an atmosphere of 5% CO2/95% air at 37° C. For transfection, cells were seeded in 12 well culture plates until cultures reached 95-100% confluence. The cells were then transfected with 1 μM ASC siRNAs using siPORT NeoFX Transfection Agent (Invitrogen) following the manufacturer protocol.
Transfection efficiency was estimated by assessing the amount of Block-it Alexa Fluor green fluorescent oligonucleotide (Invitrogen) present inside cells in control cultures 24 and 72 hours after transfection. […] Following the 72 hours treated endothelial cells were placed on 150 μL of lysis buffer with protease inhibitor cocktail (Sigma), and caspase-1 levels were measured by SimpleStep ELISA™ kit (Abcam; Cambridge, UK) according to the manufacturer's instructions. Caspase-1 protein levels were determined by measuring the fluorescence intensity using a microplate reader (SpectraMax iD3, Molecular Device, San Jose, CA, USA) with excitation and emission wavelengths set at 485 and 535 nm, respectively. […]
Caspase-1 levels were analyzed by SimpleStep ELISA after 72 hours of treatment with either YVAD (30 ng/ml) or ASC siRNA (1 μM) transfection, both sets of cells underwent inflammation induction with TNFα and INFγ. […]

[5] = test system: caspase-1; assay: Caspase-1 ELISA in human corneal endothelial grafts exposed to TNF-α and IFN-γ; format: cell-based; conditions: Ac-YVAD-cmk 30 ng/ml, TNF-α 100 ng/ml + IFN-γ 100 ng/ml, 48 hours; vs exposed and control non-exposed grafts, p<0.0001
Experimental: as §1, §2

[6] = test system: GSDM-D; assay: GSDM-D immunofluorescence in corneal endothelial grafts exposed to TNF-α and IFN-γ; format: cell-based, human; conditions: Ac-YVAD-cmk, TNF-α 100 ng/ml + IFN-γ 100 ng/ml, 48 hours
Experimental: as §1
(§3) Endothelial grafts were fixed with 4% paraformaldehyde for 10 minutes at room temperature and washed with PBS. For immunofluorescence staining, samples were permeabilized with 0.3% Triton X-100 in PBS for 15 minutes and blocked with Image-iT FX signal enhancer (Invitrogen ThermoFisher Scientific; Carlsbad, CA, USA) for 30 minutes at room temperature. Isotype-matched nonspecific IgG antibodies were used as controls. […] Stained samples were examined using an inverted fluorescence microscope (BZ-X800 Analyzer, KEYENCE, Osaka, Japan). Images were analyzed using BZ-X-Analyzer software (KEYENCE, Osaka, Japan).

[7] = test system: caspase-1; assay: Caspase-1 immunofluorescence in corneal endothelial grafts exposed to TNF-α and IFN-γ; format: cell-based, human; conditions: Ac-YVAD-cmk 30 ng/ml, TNF-α 100 ng/ml + IFN-γ 100 ng/ml, 48 hours
Experimental: as §1, §3

## Ac-YVAD-cmk
[1]
  IL-1β levels (ELISA): did not show significantly lower levels of IL-1β
[2]
  LDH levels (LDH release, cell death): significantly downregulated
[3]
  ROS levels: significantly downregulated
[4]
  decrease of caspase-1 levels: about 41%
[5]
  caspase-1 levels (ELISA): significantly lower levels of caspase-1
[6]
  intracellular (cytoplasmic) immunoreactivity of GSDM-D: inhibited
[7]
  caspase-1 expression (immunofluorescence): lower expression of caspase-1
